Experimental data from patent US7776888B2, “Herbicides” (Syngenta Crop Protection, Inc., priority 2002, dated 2010).

Columns and labels:
Format in all cases: in vivo
Kochia = test: Pre-emergence herbicidal action (Example B1); conditions: 250 gr/ha, sprayed immediately after sowing, evaluated after 3 weeks; scale of ten ratings 10=total damage, 0=no action
Description: (§1) Monocotyledonous and dicotyledonous test plants are sown in standard soil in plastic pots. Immediately after sowing, the test compounds, in the form of an aqueous suspension (prepared from a 25% wettable powder (Example F3, b) according to WO 97/34485) or in the form of an emulsion (prepared from a 25% emulsifiable concentrate (Example F1, c)), are applied by spraying in a concentration corresponding to 125 g or 250 g of active ingredient/ha (500 liters of water/ha). The test plants are then grown in a greenhouse under optimum conditions. After a test duration of 3 weeks, the test is evaluated in accordance with a scale of ten ratings (10=total damage, 0=no action). Ratings of from 10 to 6 (especially from 10 to 8) indicate good to very good herbicidal action.

Abutilon = test: Pre-emergence herbicidal action (Example B1); conditions: 250 gr/ha, sprayed immediately after sowing, evaluated after 3 weeks; scale of ten ratings 10=total damage, 0=no action
Description: as §1

Echinochloa = test: Pre-emergence herbicidal action (Example B1); conditions: 250 gr/ha, sprayed immediately after sowing, evaluated after 3 weeks; scale of ten ratings 10=total damage, 0=no action
Description: as §1

Amaranthus [1] = test: Pre-emergence herbicidal action (Example B1); conditions: 250 gr/ha, sprayed immediately after sowing, evaluated after 3 weeks; scale of ten ratings 10=total damage, 0=no action
Description: as §1

Panicum = test: Pre-emergence herbicidal action (Example B1); conditions: 250 gr/ha, sprayed immediately after sowing, evaluated after 3 weeks; scale of ten ratings 10=total damage, 0=no action
Description: as §1

Chenopodium [2] = test: Pre-emergence herbicidal action (Example B1); conditions: 250 gr/ha, sprayed immediately after sowing, evaluated after 3 weeks; scale of ten ratings 10=total damage, 0=no action
Description: as §1

Ipomea = test: Post-emergence herbicidal action (Example B2); conditions: 250 gr/ha, sprayed at 4- to 6-leaf stage, evaluated after about 18 days; scale 10=total damage, 0=no action
Experimental: (§2) In a greenhouse, monocotyledonous and dicotyledonous test plants are grown in standard soil in plastic pots and at the 4- to 6-leaf stage are sprayed with an aqueous suspension of the test compounds of formula I prepared from a 25% wettable powder (Example F3, b) according to WO 97/34485) or with an emulsion of the test compounds of formula I prepared from a 25% emulsifiable concentrate (Example F1, c) according to WO 97/34485), in a concentration corresponding to 125 g or 250 g of active ingredient/ha (500 liters of water/ha). The test plants are then grown on in a greenhouse under optimum conditions. After a test duration of about 18 days, the test is evaluated in accordance with a scale of ten ratings (10=total damage, 0=no action). Ratings of from 10 to 6 (especially from 10 to 7) indicate good to very good herbicidal action.

Amaranthus [3] = test: Post-emergence herbicidal action (Example B2); conditions: 250 gr/ha, sprayed at 4- to 6-leaf stage, evaluated after about 18 days; scale 10=total damage, 0=no action
Experimental: as §2

Stellaria = test: Post-emergence herbicidal action (Example B2); conditions: 250 gr/ha, sprayed at 4- to 6-leaf stage, evaluated after about 18 days; scale 10=total damage, 0=no action
Experimental: as §2

Chenopodium [4] = test: Post-emergence herbicidal action (Example B2); conditions: 250 gr/ha, sprayed at 4- to 6-leaf stage, evaluated after about 18 days; scale 10=total damage, 0=no action
Experimental: as §2

weeds = test: Comparison test post-emergence (Example B3), overall; conditions: rate of application of 15 g/ha
Description: This enhanced action was not to be expected in view of the structural similarity of the compounds.

Galium = test: Comparison test with prior art compound, post-emergence herbicidal action (Example B3); conditions: 15 gr/ha, rating scale 10=total damage, 0=no action
Experimental: (§3) […] The test plants are then grown on in a greenhouse under optimum conditions. After a test duration of about 18 days, the test is evaluated in accordance with a scale of ten ratings (10=total damage, 0=no action). Ratings of from 10 to 6 (especially from 10 to 7) indicate good to very good herbicidal action. […] Examples of the good herbicidal action of the compounds are given in Table B2: The post-emergence herbicidal action of compound No. 1.0411 according to the invention is compared with compound “A” from WO 01/94339:

Sida = test: as above; conditions: 15 gr/ha, rating scale 10=total damage, 0=no action
Experimental: as §3

Brachiaria = test: as above; conditions: 15 gr/ha, rating scale 10=total damage, 0=no action
Experimental: as §3

Polygonum = test: as above; conditions: 15 gr/ha, rating scale 10=total damage, 0=no action
Experimental: as §3

Rottboelia = test: as above; conditions: 15 gr/ha, rating scale 10=total damage, 0=no action
Experimental: as §3

Sinapis = test: as above; conditions: 15 gr/ha, rating scale 10=total damage, 0=no action
Experimental: as §3

SMILES	Pre-emergence herbicidal action: Kochia (Kochia)	Pre-emergence herbicidal action: Abutilon (Abutilon)	Pre-emergence herbicidal action: Echinochloa (Echinochloa)	Pre-emergence herbicidal action: Amaranthus (Amaranthus [1])	Pre-emergence herbicidal action: Panicum (Panicum)	Pre-emergence herbicidal action: Chenopodium (Chenopodium [2])	Post-emergence herbicidal action: Ipomea (Ipomea)	Post-emergence herbicidal action: Amaranthus (Amaranthus [3])	Post-emergence herbicidal action: Stellaria (Stellaria)	Post-emergence herbicidal action: Chenopodium (Chenopodium [4])	herbicidal action on the weeds compared with compound A (in words) (weeds)	Post-emergence action: Galium (Galium)	Post-emergence action: Sida (Sida)	Post-emergence action: Brachiaria (Brachiaria)	Post-emergence action: Polygonum (Polygonum)	Post-emergence action: Rottboelia (Rottboelia)	Post-emergence action: Sinapis (Sinapis)
COCCOCc1nc(C(F)(F)F)ccc1C(=O)C1=C(O)C2(C)C=CC(C)(O2)C1=O (stereo not shown) [1.0301]	8	7	7	8	7	9	8	8	8	8	–	–	–	–	–	–	–
COCCOCc1nc(C(F)(F)F)ccc1C(=O)C1=C(O)C2C=CC(C2)C1=O (stereo not shown) [1.0411]	10	10	9	10	10	10	10	9	9	10	considerably better herbicidal action	6	8	10	8	3	8
Cc1nc(C(F)(F)F)ccc1C(=O)C1=C(O)C2C=CC(C1=O)C21CC1 (stereo not shown) [1.1153]	–	–	–	–	–	–	8	7	10	8	–	–	–	–	–	–	–
COCCOCc1nc(C(F)(F)F)ccc1C(=O)C1C(=O)C2CCC(C2)C1=O (stereo not shown) [A, reference compound]	–	–	–	–	–	–	–	–	–	–	–	5	7	4	5	0	6
